ChEMBL document CHEMBL5505979, “Novel aminothiazoximone-corbelled ethoxycarbonylpyrimidones with antibiofilm activity to conquer Gram-negative bacteria through potential multitargeting effects” (Eur J Med Chem, 2024)
≈ marks a conversion by molar mass, not a printed value. Calls of active or inactive are those of the source. No cut-off for these calls is given here.

What was measured:
Acinetobacter baumannii [1] = experiment: Anti-bacterial activity against Acinetobacter baumannii assessed as growth inhibition by measuring optical density measured at 4 time of MIC in presence of 2 times of MIC of norfloxacin by Checkerboard assay (reference value: 0.152); format: functional
Escherichia coli [2] = experiment: Anti-bacterial activity against Escherichia coli ATCC 25922 assessed as growth inhibition by measuring optical density measured at 1 time of MIC in presence of 1/8 times of MIC of norfloxacin by Checkerboard assay (reference value: 0.125); format: functional
Escherichia coli [3] = experiment: Anti-bacterial activity against Escherichia coli ATCC 25922 assessed at fractional inhibitory concentration measured upto 9 hrs in presence of norfloxacin; format: functional
Escherichia coli [4] = experiment: Reduction in metabolic activity of Escherichia coli ATCC 25922 assessed as decrease in fluorescence intensity at 1/4 to 8 times of MIC measured after 6 hrs by resazurin sodium salt assay; format: functional, organism-based
Candida tropicalis = experiment: Anti-fungal activity against Candida tropicalis assessed as inhibition of fungal growth; format: functional; details: Candida tropicalis; read-out: MIC
Escherichia coli [5] = experiment: Anti-bacterial activity against Escherichia coli ATCC 25922 assessed as growth inhibition by measuring optical density measured at 1/2 time of MIC in presence of 1 times of MIC of norfloxacin by Checkerboard assay (reference value: 0.124); format: functional
Escherichia coli [6] = experiment: Antibiofilm activity against Escherichia coli ATCC 25922 assessed as inhibition rate of bio-film formation at 0.5 times of MIC concentration by Crystal violet assay relative to control; format: functional
Acinetobacter baumannii [7] = experiment: Induction of ROS accumulation in Acinetobacter baumannii assessed as decrease in GSH activity by measuring reduced GSH to convert to oxidized GSSG at 1/4 to 2 times of MIC by Ellmans method; format: functional, organism-based
Enterococcus faecalis = experiment: Anti-bacterial activity against Enterococcus faecalis V583 assessed as inhibition of bacterial growth; format: functional
Escherichia coli [8] = experiment: Anti-bacterial activity against Escherichia coli ATCC 25922 assessed as growth inhibition by measuring optical density measured at 2 time of MIC in presence of 2 times of MIC of norfloxacin by Checkerboard assay (reference value: 0.128); format: functional
Escherichia coli [9] = experiment: Anti-bacterial activity against Escherichia coli ATCC 25922 assessed as growth inhibition by measuring optical density measured at 1/4 time of MIC in presence of 1/4 times of MIC of norfloxacin by Checkerboard assay (reference value: 0.128); format: functional
Acinetobacter baumannii [10] = experiment: Antibiofilm activity against Acinetobacter baumannii assessed as inhibition rate of bio-film formation at 8 times of MIC concentration by Crystal violet assay relative to control; format: functional
Cell membrane = experiment: Induction of membrane damage in Acinetobacter baumannii assessed as increase in fluorescence intensity at 1 to 4 times of MIC concentration measured after 90 mins by DiSC3 fluorescent probe assay; format: cell membranes
Acinetobacter baumannii [11] = experiment: Anti-bacterial activity against Acinetobacter baumannii assessed as growth inhibition by measuring optical density measured at 1/4 time of MIC in presence of 2 times of MIC of norfloxacin by Checkerboard assay (reference value: 0.152); format: functional
Acinetobacter baumannii [12] = experiment: Anti-bacterial activity against Acinetobacter baumannii assessed as growth inhibition by measuring optical density measured at 1/2 time of MIC in presence of 1/4 times of MIC of norfloxacin by Checkerboard assay (reference value: 0.152); format: functional
Escherichia coli [13] = experiment: Anti-bacterial activity against Escherichia coli ATCC 25922 assessed as inhibition of bacterial growth measured after 20 passages at sub-MIC concentration by multiple resistance study; format: functional, organism-based
[14] = Hemolysis in human RBC assessed as hemolysis rate at effective bactericidal concentration for 3 hrs; format: toxicity, cell-based, Erythrocyte; details: red blood cells, read-out: Activity
Acinetobacter baumannii [15] = experiment: Reduction of biofilm virulent factors in Acinetobacter baumannii assessed as decrease in extracellular polymeric substances (EPS) at 4 times of MIC concentration by congo red binding assay relative to control; format: functional; parameters: scale not given: the % may be the effect or the level left
Candida parapsilosis = experiment: Anti-fungal activity against Candida parapsilosis assessed as inhibition of fungal growth; format: functional; details: Lodderomyces parapsilosis; read-out: MIC
Escherichia coli [16] = experiment: Anti-bacterial activity against Escherichia coli ATCC 25922 assessed as growth inhibition by measuring optical density measured at 1/4 time of MIC in presence of 1/2 times of MIC of norfloxacin by Checkerboard assay (reference value: 0.128); format: functional
Acinetobacter baumannii [17] = experiment: Anti-bacterial activity against Acinetobacter baumannii assessed as growth inhibition by measuring optical density measured at 1/4 time of MIC in presence of 1/4 times of MIC of norfloxacin by Checkerboard assay (reference value: 0.152); format: functional
Acinetobacter baumannii [18] = experiment: Reduction in metabolic activity of Acinetobacter baumannii at 2 times of MIC concentration relative to control; format: functional; parameters: scale not given: the % may be the effect or the level left
Escherichia coli [19] = experiment: Anti-bacterial activity against Escherichia coli ATCC 25922 assessed at fractional inhibitory concentration index measured upto 9 hrs in presence of norfloxacin; format: functional
Acinetobacter baumannii [20] = experiment: Anti-bacterial activity against Acinetobacter baumannii assessed as growth inhibition by measuring optical density measured at 1/2 time of MIC in presence of 1/2 times of MIC of norfloxacin by Checkerboard assay (reference value: 0.152); format: functional
Escherichia coli [21] = experiment: Anti-bacterial activity against Escherichia coli ATCC 25922 assessed as growth inhibition by measuring optical density measured at 4 time of MIC in presence of 1/2 times of MIC of norfloxacin by Checkerboard assay (reference value: 0.125); format: functional
Escherichia coli [22] = experiment: Reduction in metabolic activity of Escherichia coli ATCC 25922 assessed as decrease in bacterial lactate dehydrogenase activity at 0.5 to 8 times of MIC concentration; format: functional, organism-based
Acinetobacter baumannii [23] = experiment: Reduction of biofilm virulent factors in Acinetobacter baumannii assessed as decrease in extracellular polymeric substances (EPS) by measuring optical density at 490 nm at 4 times of MIC concentration by congo red binding assay (reference value: 0.188 to 0.192); format: functional
Acinetobacter baumannii [24] = experiment: Anti-bacterial activity against Acinetobacter baumannii assessed as growth inhibition by measuring optical density measured at 4 time of MIC in presence of 1 times of MIC of norfloxacin by Checkerboard assay (reference value: 0.152); format: functional
Escherichia coli [25] = experiment: Antibiofilm activity against Escherichia coli ATCC 25922 assessed as reduction of self-aggregation; format: functional, organism-based
Acinetobacter baumannii [26] = experiment: Reduction in metabolic activity of Acinetobacter baumannii assessed as biomass of the fluorescent pink change to non-fluorescent blue; format: functional, organism-based
Acinetobacter baumannii [27] = experiment: Anti-bacterial activity against Acinetobacter baumannii assessed as bacterial mortality at 1 to 4 MIC concentration by propidium iodide based fluorescence microscopy relative to control; format: functional, organism-based
Escherichia coli [28] = experiment: Anti-bacterial activity against Escherichia coli ATCC 25922 assessed as growth inhibition by measuring optical density measured at 1/2 time of MIC in presence of 1/8 times of MIC of norfloxacin by Checkerboard assay (reference value: 0.124); format: functional
Escherichia coli [29] = experiment: Anti-bacterial activity against Escherichia coli ATCC 25922 assessed as bacterial mortality at 1 to 4 MIC concentration by propidium iodide based fluorescence microscopy relative to control; format: functional, organism-based
Acinetobacter baumannii [30] = experiment: Anti-bacterial activity against Acinetobacter baumannii assessed as growth inhibition by measuring optical density measured at 4 time of MIC in presence of 1/2 times of MIC of norfloxacin by Checkerboard assay (reference value: 0.152); format: functional

With `CCCCc1nc(Cl)c(C2NC(=O)NC(CN3CCN(C(=O)/C(=N/OC)c4csc(N)n4)CC3)=C2C(=O)OCC)[nH]1` (centres undefined) the OD (Acinetobacter baumannii [1]) was 0.051, the OD (Escherichia coli [2]) was 0.121 and the FIC (Escherichia coli [3]) was 0.5. For the same molecule, the Activity (Escherichia coli [4]) was “Active”, the MIC (Candida tropicalis) was 53 µM (≈ 32.2 µg/mL) and the OD (Escherichia coli [5]) was 0.082. The “inhibition (INH)” value (Escherichia coli [6]) was 28.3%, the Activity (Acinetobacter baumannii [7]) was “Active” and the MIC (Enterococcus faecalis) was 13 µM (≈ 7.91 µg/mL). The OD (Escherichia coli [8]) was 0.052, the OD (Escherichia coli [9]) was 0.127 and the “inhibition (INH)” value (Acinetobacter baumannii [10]) was greater than 70.2%. The Activity (Cell membrane) was “inactive”, the OD (Acinetobacter baumannii [11]) was 0.116 and the OD (Acinetobacter baumannii [12]) was 0.119. The Activity (Escherichia coli [13]) was “Active”, the hemolysis at 3 h [14] was less than 5% and the Activity (Acinetobacter baumannii [15]) was 52.4%. It also gave an MIC (Candida parapsilosis) of 422 µM (≈ 257 µg/mL), an OD (Escherichia coli [16]) of 0.125 and an OD (Acinetobacter baumannii [17]) of 0.129. For the same molecule, the Activity (Acinetobacter baumannii [18]) was 66.3%, the “fractional inhibitory concentration index (FICI)” value (Escherichia coli [19]) was 0.75 and the OD (Acinetobacter baumannii [20]) was 0.107. For the same molecule, the OD (Escherichia coli [21]) was 0.052, the Activity (Escherichia coli [22]) was “Active” and the OD (Acinetobacter baumannii [23]) was 0.097. The OD (Acinetobacter baumannii [24]) was 0.051, the Activity (Escherichia coli [25]) was “Dose-Dependent Effect” and the Activity (Acinetobacter baumannii [26]) was “Active”. For the same molecule, the Activity (Acinetobacter baumannii [27]) was “Active”, the OD (Escherichia coli [28]) was 0.117 and the Activity (Escherichia coli [29]) was “Active”. It also gave an OD (Acinetobacter baumannii [30]) of 0.05.
